Reference: ChEMBL document CHEMBL4145482, “Discovery of novel HSP90 inhibitors that induced apoptosis and impaired autophagic flux in A549 lung cancer cells” (Eur J Med Chem, 2018)
Activity calls are given as the source filed them. No cut-off for these calls is given here.

How the values were obtained:
[1] = molecular target: T1, Heat shock protein HSP90 (Homo sapiens) (UniProt P07900+P08238); assay: Inhibition of anti-HSP90 antibody binding to HSP90 in human A549 cells preincubated for 1 hr followed by antibody addition by Western blot analysis; format: cell-based
A549 [2] = assay: Growth inhibition of human A549 cells after 48 hrs by SRB assay; format: functional, cell-based; conditions: for IC50: A549, 48 h
A549 [3] = assay: Induction of necrosis in human A549 cells at 10 to 20 uM after 48 hrs by LDH release assay; format: functional, cell-based
A549 [4] = assay: Induction of apoptosis in human A549 cells assessed as DNA fragmentation at 10 uM after 6 to 24 hrs by Hoechst 33258 staining based fluorescence microscopic method; format: functional, cell-based
A549 [5] = assay: Induction of apoptosis in human A549 cells assessed as chromatin condensation at 10 uM after 6 to 24 hrs by Hoechst 33258 staining based fluorescence microscopic method; format: functional, cell-based
A549 [6] = assay: Inhibition of autophagic flux in human A549 cells assessed as increase in LC3-2 protein level at 10 uM after 24 hrs by Western blot analysis; format: functional, cell-based
A549 [7] = assay: Inhibition of autophagic flux in human A549 cells assessed as increase in p62 protein level at 10 uM after 24 hrs by Western blot analysis; format: functional, cell-based
A549 [8] = assay: Inhibition of autophagic flux in human A549 cells assessed as increase in LC3-2 protein level at 10 uM after 24 hrs in presence of V-ATPase inhibitor bafilomycin-A1 by Western blot analysis; format: functional, cell-based
A549 [9] = assay: Inhibition of autophagic flux in human A549 cells assessed as increase in p62 protein level at 10 uM after 24 hrs in presence of V-ATPase inhibitor bafilomycin-A1 by Western blot analysis; format: functional, cell-based
A549 [10] = assay: Growth inhibition of human A549 cells up to 20 uM up to 48 hrs by SRB assay; format: functional, cell-based
[11] = molecular target: T1, Heat shock protein HSP90 (Homo sapiens); assay: Inhibition of HSP90 in human A549 cells assessed as reduction in AKT protein expression at 10 uM up to 48 hrs by Western blot analysis; format: cell-based
[12] = molecular target: T1, Heat shock protein HSP90 (Homo sapiens); assay: Inhibition of HSP90 in human A549 cells assessed as reduction in NFkB p65 protein expression at 10 uM up to 48 hrs by Western blot analysis; format: cell-based
A549 [13] = assay: Effect on HSP90 protein expression in human A549 cells at 10 uM up to 48 hrs by Western blot analysis; format: cell-based; conditions: a549, 48 h
A549 [14] = assay: Upregulation of HSP70 protein expression in human A549 cells at 10 uM up to 48 hrs by Western blot analysis; format: cell-based; conditions: a549, 48 h
HUVEC = assay: Cytotoxicity against HUVEC assessed as reduction in cell viability after 48 hrs by SRB assay; format: cell-based; conditions: human

In the case of COc1ccc(C2CC(c3cc4ccc(O)cc4oc3=O)=NN2c2ccccc2)cc1 (stereo unspecified), the inhibition [1] is reported as “Dose-dependent effect”, the “growth inhibition (GI)” value (A549 [2]) is reported as “Dose-dependent effect” and the IC50 (A549 [2]) is reported as 6.3 µM. The Activity (A549 [3]) was “inactive”, the Activity (A549 [4]) was “Active” and the Activity (A549 [5]) was “Active”. For the same molecule, the Activity (A549 [6]) was “Active”, the Activity (A549 [7]) was “Active” and the Activity (A549 [8]) was “inactive”. For the same molecule, the Activity (A549 [9]) was “inactive”.
For O=c1[nH]cc(F)c(=O)[nH]1, the “growth inhibition (GI)” value (A549 [10]) was “inactive”.
For O=c1oc2cc(O)ccc2cc1C1=NN(c2ccc(F)cc2)C(c2ccccc2)C1 (stereo unspecified), the inhibition [1] was “Dose-dependent effect”, the “growth inhibition (GI)” value (A549 [2]) was “Dose-dependent effect” and the IC50 (A549 [2]) was 7.2 µM. The Activity (A549 [3]) was “inactive”, the Activity (A549 [4]) was “Active” and the Activity (A549 [5]) was “Active”. For the same molecule, the Activity (A549 [6]) was “Active”, the Activity (A549 [7]) was “Active” and the Activity (A549 [8]) was “inactive”. For the same molecule, the Activity (A549 [9]) was “inactive”.
For COc1ccc(C2CC(c3cc4ccc(O)cc4oc3=O)=NN2c2ccc(F)cc2)cc1 (stereo unspecified), the inhibition [1] was “Dose-dependent effect”, the “growth inhibition (GI)” value (A549 [2]) was “Dose-dependent effect” and the IC50 (A549 [2]) was 7.1 µM. For the same molecule, the Activity (A549 [3]) was “inactive”, the Activity (A549 [4]) was “Active” and the Activity (A549 [5]) was “Active”. For the same molecule, the Activity (A549 [6]) was “Active”, the Activity (A549 [7]) was “Active” and the Activity (A549 [8]) was “inactive”. The Activity (A549 [9]) was “inactive”.
In the case of COc1ccc(C2CC(c3cc4ccc(O)cc4oc3=O)=NN2c2ccc(Br)cc2)cc1 (stereo unspecified), the inhibition [1] is reported as “Dose-dependent effect”, the “growth inhibition (GI)” value (A549 [2]) is reported as “Dose-dependent effect” and the IC50 (A549 [2]) is reported as 6.5 µM. For the same molecule, the Activity (A549 [3]) was “inactive”, the Activity (A549 [4]) was “Active” and the Activity (A549 [5]) was “Active”. For the same molecule, the Activity (A549 [6]) was “Active”, the Activity (A549 [7]) was “Active” and the Activity (A549 [8]) was “inactive”. For the same molecule, the Activity (A549 [9]) was “inactive”.
For COc1ccc(C2CC(c3cc4ccc(O)cc4oc3=O)=NN2c2ccc(Cl)cc2)cc1 (stereo unspecified), the inhibition [1] was “Dose-dependent effect”, the “growth inhibition (GI)” value (A549 [2]) was “Dose-dependent effect” and the IC50 (A549 [2]) was 9.6 µM. For the same molecule, the Activity (A549 [3]) was “inactive”, the Activity (A549 [4]) was “Active” and the Activity (A549 [5]) was “Active”. The Activity (A549 [6]) was “Active”, the Activity (A549 [7]) was “Active” and the Activity (A549 [8]) was “inactive”. The Activity (A549 [9]) was “inactive”.
In the case of O=c1oc2cc(O)ccc2cc1C1=NN(c2ccccc2)C(c2ccccc2)C1 (stereo unspecified), the inhibition [1] is reported as “Dose-dependent effect”, the inhibition [11] is reported as “Active” and the inhibition [12] is reported as “Active”. The Activity (A549 [13]) was “Non-Toxic”, the Activity (A549 [14]) was “Non-Toxic” and the “growth inhibition (GI)” value (A549 [2]) was “Dose-dependent effect”. The IC50 (A549 [2]) was 4.7 µM, the Activity (A549 [3]) was “inactive” and the Activity (HUVEC) was “Non-Toxic”. For the same molecule, the Activity (A549 [4]) was “Active”, the Activity (A549 [5]) was “Active” and the Activity (A549 [6]) was “Active”. The Activity (A549 [7]) was “Active”, the Activity (A549 [8]) was “inactive” and the Activity (A549 [9]) was “inactive”.
